Assay results: ChEMBL document CHEMBL5316350, “Novel Pyrido[2',1':2,3]imidazo[4,5-c]quinoline Derivative Selectively Poisons Leishmania donovani Bisubunit Topoisomerase 1 to Inhibit the Antimony-Resistant Leishmania Infection in Vivo” (J Med Chem, 2023)
Activity calls are given as the source filed them. The rule behind the calls is not given here.

Legend:
Leishmania donovani [1] = assay: Induction of cell cycle arrest in Leishmania donovani Ag83 promastigotes assessed as decrease in accumulation of cells in S phase at 5 uM measured after 24 hrs by PI staining based flow cytometry (reference value: 18.1%); assay type: functional; parameters: scale not given: the % may be the effect or the level left
[2] = target: T1, DNA topoisomerase I (Leishmania donovani (strain BPK282A1)) (UniProt E9BRC0); assay: Inhibition of Leishmania donovani recombinant Top1 assessed as relaxation of supercoiled pBluescript SK(+) DNA at 5 uM incubated for 30 mins by agarose gel electrophoresis analysis relative to control
T1 sequence (whole entry): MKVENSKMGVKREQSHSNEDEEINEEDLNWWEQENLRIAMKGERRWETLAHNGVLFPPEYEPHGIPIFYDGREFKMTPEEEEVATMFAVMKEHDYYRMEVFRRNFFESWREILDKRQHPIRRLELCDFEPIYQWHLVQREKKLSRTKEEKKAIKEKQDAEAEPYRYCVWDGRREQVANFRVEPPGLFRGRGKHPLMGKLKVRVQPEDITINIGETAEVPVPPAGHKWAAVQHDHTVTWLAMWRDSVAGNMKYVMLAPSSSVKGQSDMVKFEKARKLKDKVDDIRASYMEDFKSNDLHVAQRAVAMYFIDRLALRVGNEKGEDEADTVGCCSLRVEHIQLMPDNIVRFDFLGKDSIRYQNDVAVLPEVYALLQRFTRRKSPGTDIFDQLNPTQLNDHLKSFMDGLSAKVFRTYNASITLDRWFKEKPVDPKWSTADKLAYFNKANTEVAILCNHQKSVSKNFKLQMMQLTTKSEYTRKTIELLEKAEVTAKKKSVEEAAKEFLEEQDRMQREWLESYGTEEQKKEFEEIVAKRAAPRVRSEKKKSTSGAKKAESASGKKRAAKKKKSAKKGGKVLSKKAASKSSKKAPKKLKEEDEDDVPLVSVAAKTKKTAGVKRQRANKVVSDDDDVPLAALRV

[3] = target: T1, DNA topoisomerase I (Leishmania donovani (strain BPK282A1)); assay: Inhibition of Leishmania donovani recombinant Top1 preincubated with compound for 5 mins followed by plasmid DNA addition at 1 to 10 uM measured after 30 mins; conditions: dose 1-10 µM
Leishmania donovani [4] = assay: Induction of cell cycle arrest in Leishmania donovani Ag83 promastigotes assessed as decrease in accumulation of cells in G0/G1 phase at 5 uM measured after 12 hrs by PI staining based flow cytometry (reference value: 65.1%); assay type: functional; parameters: scale not given: the % may be the effect or the level left
Leishmania donovani [5] = assay: Induction of apoptosis in Leishmania donovani Ag83 promastigotes assessed as viable cells measured at 5 uM after 6 hrs by Annexin V-FITC/PI staining based flow cytometric analysis (reference value: 99.4%); assay type: functional
Leishmania donovani [6] = assay: Induction of apoptosis in Leishmania donovani Ag83 promastigotes assessed as early apoptotic cells measured at 5 uM after 6 hrs by Annexin V-FITC/PI staining based flow cytometric analysis (reference value: 0.00%); assay type: functional
Leishmania donovani [7] = assay: Induction of apoptosis in Leishmania donovani Ag83 promastigotes assessed as late apoptotic cells measured at 5 uM after 6 hrs by Annexin V-FITC/PI staining based flow cytometric analysis (reference value: 0.1%); assay type: functional
Leishmania donovani [8] = assay: Induction of apoptosis in Leishmania donovani Ag83 promastigotes assessed as necrotic cells measured at 5 uM after 6 hrs by Annexin V-FITC/PI staining based flow cytometric analysis (reference value: 0.5%); assay type: functional
Leishmania donovani [9] = assay: Induction of apoptosis in Leishmania donovani Ag83 promastigotes assessed as early apoptotic cells measured at 5 uM after 12 hrs by Annexin V-FITC/PI staining based flow cytometric analysis (reference value: 0.00%); assay type: functional
Leishmania donovani [10] = assay: Induction of apoptosis in Leishmania donovani Ag83 promastigotes assessed as late apoptotic cells measured at 5 uM after 12 hrs by Annexin V-FITC/PI staining based flow cytometric analysis (reference value: 0.1%); assay type: functional
Leishmania donovani [11] = assay: Induction of apoptosis in Leishmania donovani Ag83 promastigotes assessed as necrotic cells measured at 5 uM after 12 hrs by Annexin V-FITC/PI staining based flow cytometric analysis; assay type: functional, organism-based
Leishmania donovani [12] = assay: Induction of apoptosis in Leishmania donovani Ag83 promastigotes assessed as late apoptotic cells measured at 5 uM after 24 hrs by Annexin V-FITC/PI staining based flow cytometric analysis (reference value: 0.1%); assay type: functional
Leishmania donovani [13] = assay: Antileishmanial activity in Leishmania donovani Ag83 promastigotes assessed as fold change in persistent Top1cc-induced DNA breakdown by measuring TUNEL positive cells treated for 6 to 12 hrs followed by compound removal measured after 6 to 12 hrs by confocal microscopic analysis relative to camptothecin; assay type: functional; conditions: time 6-12 hrs
Leishmania donovani [14] = assay: Antileishmanial activity in Leishmania donovani BHU575 promastigotes assessed as TUNEL positive cells at 5 uM measured after 24 hrs by confocal microscopic analysis relative to control; assay type: functional
Leishmania donovani [15] = assay: Induction of cell cycle arrest in antimony resistant Leishmania donovani BHU575 promastigotes assessed as decrease in accumulation of cells in G0/G1 phase at 5 uM measured after 6 hrs by PI staining based flow cytometry (reference value: 80.7%); assay type: functional; parameters: scale not given: the % may be the effect or the level left
Leishmania donovani [16] = assay: Induction of cell cycle arrest in antimony resistant Leishmania donovani BHU575 promastigotes assessed as decrease in accumulation of cells in G0/G1 phase at 5 uM measured after 12 hrs by PI staining based flow cytometry (reference value: 80.7%); assay type: functional; parameters: scale not given: the % may be the effect or the level left
Leishmania donovani [17] = assay: Induction of cell cycle arrest in antimony resistant Leishmania donovani BHU575 promastigotes assessed as decrease in accumulation of cells in S phase at 5 uM measured after 12 hrs by PI staining based flow cytometry (reference value: 9.8%); assay type: functional; parameters: scale not given: the % may be the effect or the level left
Leishmania donovani [18] = assay: Induction of cell cycle arrest in antimony resistant Leishmania donovani BHU575 promastigotes assessed as decrease in accumulation of cells in G2/M phase at 5 uM measured after 6 hrs by PI staining based flow cytometry (reference value: 8.8%); assay type: functional; parameters: scale not given: the % may be the effect or the level left
Leishmania donovani [19] = assay: Antileishmanial activity against antimony resistant Leishmania donovani BHU575 promastigotes infected in BALB/c mouse assessed as reduction of amastigote burden in spleen treated after 3 weeks of infection at 5 to 10 mg/kg, ip twice a week for 3 weeks by Giemsa staining stamp-smear based limiting dilution assay; assay type: functional, organism-based; conditions: dose 5-10 mg/kg
Leishmania donovani [20] = assay: (§1) Antileishmanial activity against Leishmania donovani Ag83 promastigotes infected in BALB/c mouse assessed as reduction of amastigote burden by measuring parasite count in blood treated after 3 weeks of infection at 5 to 10 mg/kg, ip twice a week for 3 weeks by qPCR based kineto-plastid DNA; assay type: functional, organism-based; conditions: dose 5-10 mg/kg
Leishmania donovani [21] = assay: Antileishmanial activity against Leishmania donovani Ag83 promastigotes infected in BALB/c mouse assessed as reduction of amastigote burden by measuring parasite count in liver treated after 3 weeks of infection at 5 to 10 mg/kg, ip twice a week for 3 weeks by qPCR based kineto-plastid DNA; assay type: functional, organism-based; conditions: dose 5-10 mg/kg
Leishmania donovani [22] = assay: as §1, with “against antimony resistant” for “against”, “BHU575” for “Ag83”, “spleen” for “blood”; assay type: functional, organism-based; conditions: dose 5-10 mg/kg
Leishmania donovani [23] = assay: (§2) Antileishmanial activity against Leishmania donovani Ag83 promastigotes infected in BALB/c mouse model of visceral leishmaniasis assessed as fold change in T-helper type 1 immunological evoke response in splenocytes by measuring increased IFN-gamma cytokine level treated after 3 weeks of infection at 10 mg/kg, ip twice a week for 3 weeks by RT-PCR analysis; assay type: functional
Leishmania donovani [24] = assay: as §2, with “measuring increased IL-12 cytokine level” for “measuring increased IFN-gamma cytokine level”, “infection at 5 to 10 mg/kg,” for “infection at 10 mg/kg,”; assay type: functional; conditions: dose 5-10 mg/kg
Leishmania donovani [25] = assay: as §2, with “by measuring decrease in IL-10 level treated” for “by measuring increased IFN-gamma cytokine level treated”, “infection at 5 to 10 mg/kg,” for “infection at 10 mg/kg,”; assay type: functional; conditions: dose 5-10 mg/kg

COc1cc(-c2nc3ccccc3c3nc4ccccn4c23)cc(OC)c1OC
Activity (Leishmania donovani [1]): 31.5%
inhibition [2]: 85%
inhibition [3]: inactive
Activity (Leishmania donovani [4]): 40.7%
Activity (Leishmania donovani [5]): 5%
Activity (Leishmania donovani [6]): 18.7%
Activity (Leishmania donovani [7]): 52.5%
Activity (Leishmania donovani [8]): 23.9%
Activity (Leishmania donovani [9]): 11.4%
Activity (Leishmania donovani [10]): 61%
Activity (Leishmania donovani [11]): Active
Activity (Leishmania donovani [12]): 70.6%
fold change (FC) (Leishmania donovani [13]): 3
Activity (Leishmania donovani [14]): 85%
Activity (Leishmania donovani [15]): 70.8%
Activity (Leishmania donovani [16]): 46%
Activity (Leishmania donovani [17]): 23.7%
Activity (Leishmania donovani [18]): 2.6%
Activity (Leishmania donovani [19]): Active
Activity (Leishmania donovani [20]): Active
Activity (Leishmania donovani [21]): Active
Activity (Leishmania donovani [22]): Active
fold change (FC) (Leishmania donovani [23]): 5.5
fold change (FC) (Leishmania donovani [24]): 10
fold change (FC) (Leishmania donovani [25]): 2
